Laboratory results from US20120302616A1, “METHOD OF TREATMENT OF OBSESSIVE COMPULSIVE DISORDER WITH ONDANSETRON” (priority 2010, published 2012).
“And” between values parts separate entries of the source, which are not always exact repeats. Equal entries are not always repeated.

Columns and labels:
[1] = system: patients with treatment-resistant OCD; test: Ondansetron augmentation of SRI therapy, single-blind 12-week study with 4-week discontinuation follow-up (YBOCS, CGI); assay type: in vivo, human; design: reduction in CGI-I from baseline: concentration or dose not given beside the values; details: for CGI-I Score / YBOCS % Reduction / YBOCS Score: individual patients (21); for Compulsion Subdomain YBOCS % Reduction / Obsession Subdomain YBOCS % Reduction / Compulsion Subdomain YBOCS Score / Obsession Subdomain YBOCS Score: individual patients
Procedure: Twenty-one patients with a DSM-IV diagnosis of treatment-resistant OCD, under stable treatment with SRIs approved by the FDA for OCD therapy, received 12 weeks of single-blind ondansetron augmentation initiated at a dose of 0.25 mg twice daily for 2 weeks, and titrated to 0.5 mg twice daily for 10 weeks. Patients were rated every two weeks using the Yale Brown Obsessive Compulsive Scale (YBOCS) and Clinical Global Impressions Scale (CGI). Treatment-resistant patients were defined as having completed an adequate trial of SRIs at a moderate to high dose for at least 12 weeks and still having a YBOCS severity of >24, and CGI-Severity of ≧4. Treatment response was defined as an additional 25% reduction in YBOCS score from YBOCS score at the initiation of ondansetron augmentation, an end of treatment (EOT) period YBOCS of ≦24, and CGI-Improvement (CGI-I) of ≦2. Additionally, ondansetron was discontinued after 12 weeks and patients were followed up for another 4 weeks for relapse in YBOCs symptoms. The obsession and compulsion subdomains of the Y-BOCS were also analyzed to determine whether ondansetron would selectively affect one subdomain or the other.

[2] = system: mesenteric bed or the nerves in the heart; details: animal studies; cited from earlier work
[3] = system: patients with treatment-resistant OCD; test: Side effects and vital signs in the SRI plus antipsychotic augmentation study; assay type: in vivo, human
Procedure: The Y-BOCS, Montgomery-Asberg Depression Rating Scale (MADRS) (see Montgomery, S. A., BR J PSYCHIATRY 1979; 134:382-389) was administered at screening and baseline, and these assessments were repeated at every follow-up visit at 2-week intervals, along with the Clinical Global Impressions-Improvement (CGI-I) rating (see Guy, W. ECDEU Assessment Manual for Psychopharmacology. US Dept Health, Education, and Welfare publication (ADM) 76-338. Rockville, Md.: National Institute of Mental Health; 1976:218-222) and an unpublished Drug Effect scale. The Drug Effect scale asked subjects to rate “How anxious are you now?” on a scale of zero (not at all) to 10 (“the most anxious I have ever been”). Similar rating questions have been “Do you experience appearance or increment in frequency of headaches?”, “Do you experience appearance or increment in frequency of headaches fatigue?” and “Do you experience appearance or increment in frequency of headaches constipation” and so on regarding other common ondansetron side effects (diarrhea, urinary retention, itching, and dizziness). Furthermore, each evening during the first week of study medication, a study psychiatrist called the subject to ask for major or unexpected collateral effects (as chest pain, an unexplained skin rash, or tremors.). […] (See Mittmann, N. et al., AM J PSYCHIATRY 1997; 154:320-321) Subjects with MADRS scores ≧18 were excluded. Ratings were administered by an investigator who was blind to the treatment condition of the patients.
One patient reported a mild increase in anxiety levels, which lasted only one night. No change in mean pulse rate or mean blood pressure was observed. […] The daily dose of 1 mg/day divided in twice daily administration, approximately 5% of the minimum dose recommended for emesis and nausea treatment was reached after 6 weeks and maintained until the 12th week.

[4] = Week 14 (after discontinuation), Non-Responders
[5] = Week 14 (after discontinuation), Responders
[6] = Week 16 (after discontinuation), Non-Responders
[7] = Week 16 (after discontinuation), Responders
[8] = first 2 weeks of treatment, n=14

Cc1nccn1CC1CCc2c(c3ccccc3n2C)C1=O (stereo not drawn) [ondansetron]
tolerability of treatment ([1]; 0.25 mg twice daily 2 weeks, then 0.5 mg twice daily 10 weeks): well tolerated | CGI-I Score ([1]; 6 Weeks): 2 (7×) and 3 (2×) and 5 (6×) and 1 (3×) and 4 (3×) | YBOCS % Reduction ([1]; 6 Weeks): 16.00% and 0.00% (3×) and 5.00% | YBOCS Score ([1]; 6 Weeks): 22 and 19 (3×) and 28 and 21 (2×) and 27 and 24 (2×) and 14 and 29 (3×) and 38 and 32 and 17 and 25 and 16 and 26 and 31 | Compulsion Subdomain YBOCS % Reduction ([1]; 6 weeks, Non-Responders): −7.14% and 5.00% and −13.33% and −15.38% and 13.33% and 14.29% and 0.00% and 12.50% and −16.67% | Obsession Subdomain YBOCS % Reduction ([1]; 6 weeks, Non-Responders): 16.67% and 0.00% (3×) and 5.00% and −7.69% and −6.67% and 6.25% and 12.50% | Compulsion Subdomain YBOCS % Reduction ([1]; 6 weeks, Responders): 38.46% and 33.33% (2×) and 29.41% and 52.94% and 25.00% and 58.33% and 50.00% and 18.75% and 53.33% and 40.00% and 16.67% | Obsession Subdomain YBOCS % Reduction ([1]; 6 weeks, Responders): 26.67% and 35.29% and 25.00% (3×) and 31.25% and 33.33% and 23.08% and 20.00% and 29.41% and 28.57% and 15.38% | CGI-I Score ([1]; 12 Weeks): 1 (10×) and 5 (8×) and 4 and 2 (2×) | YBOCS % Reduction ([1]; 12 Weeks): 44.00% and 50.00% and 2.50% and −7.14% | YBOCS Score ([1]; 12 Weeks): 21 (2×) and 17 and 28 and 14 (2×) and 16 (3×) and 19 (2×) and 23 and 13 and 25 and 39 and 34 and 30 (2×) and 29 and 15 and 27 | average reduction in CGI-I scores for the whole group ([1]; 12 weeks): 46% | Compulsion Subdomain YBOCS % Reduction ([1]; 12 weeks, Non-Responders): 7.14% and 0.00% (2×) and −26.67% and −23.08% and 6.67% and 14.29% and 12.50% and −8.33% | Obsession Subdomain YBOCS % Reduction ([1]; 12 weeks, Non-Responders): 16.67% and 14.29% and 5.00% and 0.00% (2×) and −7.69% and −7.14% and 12.50% (2×) | Compulsion Subdomain YBOCS % Reduction ([1]; 12 weeks, Responders): 38.46% and 46.67% (2×) and 41.18% and 58.82% and 45.00% and 58.33% and 64.29% and 43.75% and 53.33% and 33.33% and 41.67% | Obsession Subdomain YBOCS % Reduction ([1]; 12 weeks, Responders): 46.67% and 52.94% and 43.75% (2×) and 44.44% and 33.33% (3×) and 30.77% and 35.29% and 35.71% and 46.15% | difference between YBOCS score at baseline and after 12 weeks ([1]; Non-responders): 2.9% | Compulsion Subdomain YBOCS Score, Mean ([1]; Week 2, Non-Responders): 14.78 | Obsession Subdomain YBOCS Score, Mean ([1]; Week 2, Non-Responders): 14.67 | Compulsion Subdomain YBOCS Score ([1]; Week 2, Non-Responders): 15 | Obsession Subdomain YBOCS Score ([1]; Week 2, Non-Responders): 12 | Compulsion Subdomain YBOCS Score, Mean ([1]; Week 2, Responders): 11.33 | Obsession Subdomain YBOCS Score, Mean ([1]; Week 2, Responders): 12.58 | Compulsion Subdomain YBOCS Score ([1]; Week 2, Responders): 11 and 12 (5×) and 10 (3×) and 16 and 5 and 14 | Obsession Subdomain YBOCS Score ([1]; Week 2, Responders): 12 (4×) and 14 (3×) and 10 and 11 (2×) and 13 and 16 | Compulsion Subdomain YBOCS Score, Mean ([1]; Week 4, Non-Responders): 15.00 | Obsession Subdomain YBOCS Score, Mean ([1]; Week 4, Non-Responders): 14.44 | Compulsion Subdomain YBOCS Score ([1]; Week 4, Non-Responders): 15 | Obsession Subdomain YBOCS Score ([1]; Week 4, Non-Responders): 11 | Compulsion Subdomain YBOCS Score, Mean ([1]; Week 4, Responders): 10.08 | Obsession Subdomain YBOCS Score, Mean ([1]; Week 4, Responders): 11.50 | Compulsion Subdomain YBOCS Score ([1]; Week 4, Responders): 9 (3×) and 11 (2×) and 12 and 14 and 5 and 10 (2×) and 13 and 8 | Obsession Subdomain YBOCS Score ([1]; Week 4, Responders): 11 (3×) and 13 (4×) and 12 (2×) and 9 and 10 (2×) | Compulsion Subdomain YBOCS Score, Mean ([1]; Week 6, Non-Responders): 15.00 | Obsession Subdomain YBOCS Score, Mean ([1]; Week 6, Non-Responders): 14.56 | Compulsion Subdomain YBOCS Score ([1]; Week 6, Non-Responders): 15 | Obsession Subdomain YBOCS Score ([1]; Week 6, Non-Responders): 10 | Compulsion Subdomain YBOCS Score, Mean ([1]; Week 6, Responders): 9.50 | Obsession Subdomain YBOCS Score, Mean ([1]; Week 6, Responders): 10.83 | Compulsion Subdomain YBOCS Score ([1]; Week 6, Responders): 8 (2×) and 10 (3×) and 12 and 15 and 5 and 7 (2×) and 13 and 9 | Obsession Subdomain YBOCS Score ([1]; Week 6, Responders): 11 (4×) and 12 (4×) and 9 (2×) and 10 (2×) | Compulsion Subdomain YBOCS Score, Mean ([1]; Week 8, Non-Responders): 15.22 | Obsession Subdomain YBOCS Score, Mean ([1]; Week 8, Non-Responders): 14.44 | Compulsion Subdomain YBOCS Score ([1]; Week 8, Non-Responders): 13 | Obsession Subdomain YBOCS Score ([1]; Week 8, Non-Responders): 10 | Compulsion Subdomain YBOCS Score, Mean ([1]; Week 8, Responders): 8.83 | Obsession Subdomain YBOCS Score, Mean ([1]; Week 8, Responders): 10.00 | Compulsion Subdomain YBOCS Score ([1]; Week 8, Responders): 8 and 9 (2×) and 10 (3×) and 7 and 15 and 5 (2×) and 12 and 6 | Obsession Subdomain YBOCS Score ([1]; Week 8, Responders): 8 (2×) and 10 (5×) and 12 (3×) and 9 (2×) | Compulsion Subdomain YBOCS Score, Mean ([1]; Week 10, Non-Responders): 15.44 | Obsession Subdomain YBOCS Score, Mean ([1]; Week 10, Non-Responders): 14.44 | Compulsion Subdomain YBOCS Score, Mean ([1]; Week 10, Responders): 8.17 | Obsession Subdomain YBOCS Score, Mean ([1]; Week 10, Responders): 9.33 | Compulsion Subdomain YBOCS Score ([1]; Week 10, Responders): 8 (3×) and 9 and 10 (2×) and 7 and 11 (2×) and 5 (2×) and 6 | Obsession Subdomain YBOCS Score ([1]; Week 10, Responders): 8 (3×) and 10 (4×) and 9 (4×) and 12 | Compulsion Subdomain YBOCS Score, Mean ([1]; Week 12, Non-Responders): 15.22 | Obsession Subdomain YBOCS Score, Mean ([1]; Week 12, Non-Responders): 14.22 | Compulsion Subdomain YBOCS Score, Mean ([1]; Week 12, Responders): 7.92 | Obsession Subdomain YBOCS Score, Mean ([1]; Week 12, Responders): 8.83 | Compulsion Subdomain YBOCS Score ([1]; Week 12, Responders): 8 (3×) and 10 (2×) and 7 (3×) and 11 and 5 (2×) and 9 | Obsession Subdomain YBOCS Score ([1]; Week 12, Responders): 8 (4×) and 9 (4×) and 10 (2×) and 11 and 7 | Compulsion Subdomain YBOCS Score, Mean [1, 4]: 15.00 | Obsession Subdomain YBOCS Score, Mean [1, 4]: 14.00 | Compulsion Subdomain YBOCS Score, Mean [1, 5]: 10.67 | Obsession Subdomain YBOCS Score, Mean [1, 5]: 11.25 | Compulsion Subdomain YBOCS Score [1, 5]: 8 (2×) and 13 (3×) and 11 (3×) and 6 and 12 (2×) and 10 | Obsession Subdomain YBOCS Score [1, 5]: 9 (2×) and 14 (2×) and 12 (3×) and 13 and 11 (2×) and 8 and 10 | Compulsion Subdomain YBOCS Score, Mean [1, 6]: 14.78 | Obsession Subdomain YBOCS Score, Mean [1, 6]: 13.67 | Compulsion Subdomain YBOCS Score, Mean [1, 7]: 11.50 | Obsession Subdomain YBOCS Score, Mean [1, 7]: 11.67 | Compulsion Subdomain YBOCS Score [1, 7]: 8 (2×) and 13 (4×) and 14 and 12 (2×) and 15 and 6 and 11 | Obsession Subdomain YBOCS Score [1, 7]: 9 (2×) and 15 and 13 and 12 (3×) and 14 (2×) and 8 and 11 (2×) | overall ondansetron effects for obsessions versus compulsions ([1]; YBOCS subdomains): comparable | reduction in CGI-I from baseline ([1]; responders, after 12 weeks): 77% | reduction in YBOCS from baseline ([1]; responders, after 12 weeks): 44% | effect on the mesenteric bed or the nerves in the heart [2]: did not appear to have effect | subjects with significant or lasting side effects (such as constipation) ([3]; 12 weeks): None | subjects with significant side effects or worsening of OC symptoms ([3]; at 6 weeks, fourteen subjects): None | patients with decreased appetite [3, 8]: two | patients with headache [3, 8]: two | patients with mild increase in anxiety levels ([3]; lasted only one night, n=14): One | mean pulse rate or mean blood pressure ([3]; n=14): No change | Side effects severity ([3]; throughout the study, n=14): mild to moderate
